From patent US10409869B2, “(R)- and (S)-1-(3-(3-N,N-dimethylaminocarbonyl)phenoxyl-4-nitrophenyl)-1-ethyl-N,N'-bis (ethylene)phosphoramidate, compositions and methods for their use and preparation” (OBI Pharma, Inc., priority 2015, dated 2019)

How the values were obtained:
AKR1C3 [1] = biological target: T1, AKR1C3 (Homo sapiens, UniProt P42330); test: Activation by the aldoketo reductase AKR1C3, LC/MS/MS of % remaining; format: biochemical; settings: 5 μM, 25 μg/mL AKR1C3, 2 mM NADPH, 37° C., up to 120 min, FIG. 2
T1 sequence (P42330 1-323): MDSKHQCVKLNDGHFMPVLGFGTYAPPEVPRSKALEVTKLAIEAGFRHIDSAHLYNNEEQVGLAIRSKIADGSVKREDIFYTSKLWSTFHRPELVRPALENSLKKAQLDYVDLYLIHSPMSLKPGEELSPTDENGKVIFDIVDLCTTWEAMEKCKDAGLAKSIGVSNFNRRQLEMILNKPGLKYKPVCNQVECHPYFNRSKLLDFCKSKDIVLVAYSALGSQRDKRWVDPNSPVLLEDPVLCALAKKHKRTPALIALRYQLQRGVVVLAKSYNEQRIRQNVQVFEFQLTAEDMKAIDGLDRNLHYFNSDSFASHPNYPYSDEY
Protocol: Recombinant human AKR1C3 was diluted to 25 μg/mL in phosphate buffered saline (PBS), pH 7.4 (37° C.), containing 2 mM NADPH. TH2870 or progesterone (positive control) in 30% methanol/70% water was added to the reaction mixture at a final concentration of 5 μM and incubated at 37° C. for 120 minutes. At various times up to 120 min, 50 μL of the reaction mixture was taken and 200 μL acetonitrile containing propranolol as internal standard was added, vortex-mixed and centrifuged for 10 min. The resulting supernatant (5 μL) was injected into a LC/MS/MS for quantitation of % remaining TH 2870 and progesterone. The compounds were tested in duplicates.

AKR1C3 [2] = biological target: T1, AKR1C3; settings: cited from earlier work
[3] = human, in vivo; cited from earlier work
[4] = Body weight and toxicity in the orthotopic HepG2-GFP mouse model; format: in vivo, nude mice; settings: 30 mg/kg, Qdx35, gavage
[5] = tested on: HepG2-GFP human hepatocellular carcinoma; test: Orthotopic HepG2-GFP human hepatocellular carcinoma mouse model, tumor burden; format: in vivo, nude mice
Protocol: Female athymic nude mice (6 weeks of age) were used in this study. The animals were purchased from Beijing HFK Bioscience, Co., Ltd and maintained in a High Efficiency Particulate Air Filter (HEPA) filtered environment with cages, food, and bedding sterilized by irradiation or autoclaving. A total of 32 nude mice were used for the study. HepG2-GFP human hepatocellular carcinoma cells (AntiCancer, Inc., San Diego, Calif.) were incubated with RPMI-1640 (Gibco-BRL, Life Technologies, Inc.), which contained 10% FBS. Cells were grown in a CO2 Water Jacketed Incubator (Forma Scientific) maintaining 37° C. and a 5% CO2/95% air atmosphere. Cell viability was determined by trypan blue exclusion analysis. Five female athymic nude mice were injected subcutaneously with a single dose of 5×10^6 HepG2-GFP cells. Tumors were harvested when their size reached 1 cm^3 and the tumor tissues were then cut into small fragments of 1 mm^3. Forty female nude mice were implanted orthotopically with a single piece of tumor fragment, which was derived from a subcutaneous tumor model of HepG2-GFP human hepatocellular carcinoma. The tumor tissue was orthotopically implanted in the right lobe of the liver in each mouse by SOI (Surgical Orthotopic Implantation). […]
During the period of the study, all of the experimental mice were checked daily for mortality or signs of morbidity. […] The body weights of the mice were measured twice weekly during the study period. […] Comparisons of body weights and tumor burdens in different groups were analyzed using the Student's t-test with an α=0.05 (two-sided). […]
The progressions of orthotopic HepG2-GFP hepatocellular carcinoma in different groups were monitored by real time imaging. […] Typical tumor images at the end of the study in each group and tumor growth curves derived from the signals of tumor fluorescence, which were analyzed using the Power Station software (INDEC Biosystems, CA, USA), are shown in FIG. 6 and FIG. 7, respectively
Tumor IR was calculated based on the final average tumor weights according to the formula: IR (%)=(1−treatment(t)/control(c))×100

## CC(=O)[C@H]1CC[C@H]2[C@@H]3CCC4=CC(=O)CC[C@]4(C)[C@H]3CC[C@]12C [Progesterone, reference compound]
AKR1C3 [1]
  disappearance (% remaining) in the presence of AKR1C3: reduced slowly

## CC(OP(=O)(N1CC1)N1CC1)c1ccc([N+](=O)[O-])c(Oc2cccc(C(=O)N(C)C)c2)c1 (racemic) [TH 2870, (R,S)-1-(3-(3-N,N-dimethylaminocarbonyl)phenoxyl-4-nitrophenyl)-1-ethyl-N,N′-bis(ethylene)phosphoramidate]
AKR1C3 [1]
  disappearance (% remaining) in the presence of AKR1C3: rapid disappearance

## CS(=O)(=O)OCCN(CCBr)c1c(C(=O)NCCOP(=O)(O)O)cc([N+](=O)[O-])cc1[N+](=O)[O-] [PR 104]
AKR1C3 [2]
  substrate for AKR1C3: weak substrate
[3]
  efficacy in clinical trials: ineffective

## CNC(=O)c1cc(Oc2ccc(NC(=O)Nc3ccc(Cl)c(C(F)(F)F)c3)cc2)ccn1 [Sorafenib, sorafenib]
[4]
  Body Weight Growth Rate: 21%
  Day 0, Body Weight (mean ± sd): 15.1 ± 1.1 g
  Day 35, Body Weight (mean ± sd): 18.2 ± 0.8 g
[4]; body weight lower than negative control
  toxicity to the experimental mice: a certain degree of toxicity
[5]; 30 mg/kg, Qdx35, gavage, P=0.0577
  average tumor size, % less than in the negative control group: about 39%
[5]; at tested dosages
  inhibitory effect on orthotopic HepG2-GFP model: had inhibitory effect
